From PubChem BioAssay (NCI)
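Assay format: 96-well plates, 48-hour exposure. GI50 marks 50% less growth. TGI marks complete inhibition of growth.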

Columns and labels:
Assay in all cases: NCI tumour cell line growth inhibition, 48 h
[1] = system: MDA-MB-231 breast
[2] = system: UACC-257 melanoma
[3] = system: CAKI-1 renal
[4] = system: SR leukemia
[5] = system: SN12C renal
[6] = system: HOP-92 NSCLC
[7] = system: SK-OV-3 ovarian
[8] = system: SW-620 colon
[9] = system: MCF7 breast
[10] = system: K-562 leukemia
[11] = system: OVCAR-3 ovarian
[12] = system: IGROV1 ovarian
[13] = system: HCC-2998 colon
[14] = system: SK-MEL-5 melanoma
[15] = system: NCI-H226 lung
[16] = system: UO-31 renal
[17] = system: SF-295 CNS
[18] = system: A549 NSCLC
[19] = system: DU-145 prostate
[20] = system: KM12 colon
[21] = system: CCRF-CEM leukemia
[22] = system: OVCAR-4 ovarian
[23] = system: COLO 205 colon
[24] = system: OVCAR-8 ovarian
[25] = system: 786-0 renal
[26] = system: NCI/ADR-RES ovarian
[27] = system: MDA-MB-435
[28] = system: RXF 393 renal
[29] = system: SK-MEL-2 melanoma
[30] = system: MALME-3M melanoma
[31] = system: TK-10 renal
[32] = system: M14 melanoma
[33] = system: NCI-H23 lung
[34] = system: EKVX NSCLC
[35] = system: HCT-116 colon
[36] = system: UACC-62 melanoma
[37] = system: OVCAR-5 ovarian
[38] = system: BT-549 breast
[39] = system: HT29 colon
[40] = system: A498 renal
[41] = system: T-47D breast
[42] = system: SF-539 CNS
[43] = system: NCI-H522 lung
[44] = system: HL-60(TB) leukemia
[45] = system: HS 578T breast
[46] = system: MOLT-4 leukemia
[47] = system: NCI-H460 lung
[48] = system: U251 CNS
[49] = system: SNB-19 CNS
[50] = system: LOX IMVI melanoma
[51] = system: HCT-15 colon
[52] = system: RPMI-8226 leukemia
[53] = system: HOP-62 NSCLC
[54] = system: ACHN renal
[55] = system: SK-MEL-28 melanoma
[56] = system: PC-3 prostate
[57] = system: SF-268 CNS

`Cn1cc(-c2nnc(N)nc2-c2c[nH]c3ccc(F)cc23)c2cc(Br)ccc21` was tested, and the GI50 [1] was 2.3 µM, the TGI [1] was 16.7 µM and the GI50 [2] was 4.71 µM. The TGI [2] was 19.3 µM, the GI50 [3] was 0.668 µM and the TGI [3] was 12.5 µM. For the same compound, the GI50 [4] was 0.671 µM, the TGI [4] was over 100 µM and the GI50 [5] was 3.12 µM. It also gave a TGI [5] of 17.4 µM, a GI50 [6] of 1.7 µM and a TGI [6] of 13.1 µM. It also gave a GI50 [7] of 2.53 µM, a TGI [7] of 15.1 µM and a GI50 [8] of 0.658 µM. The TGI [8] was 14.2 µM, the GI50 [9] was 0.7 µM and the TGI [9] was 11.2 µM. It also gave a GI50 [10] of 0.453 µM, a TGI [10] of over 100 µM and a GI50 [11] of 1.15 µM. For the same compound, the TGI [11] was 9.57 µM, the GI50 [12] was 0.881 µM and the TGI [12] was 12.7 µM. It also gave a GI50 [13] of 2.99 µM, a TGI [13] of 12.5 µM and a GI50 [14] of 1.15 µM. For the same compound, the TGI [14] was 2.71 µM, the GI50 [15] was 3.06 µM and the TGI [15] was 24.4 µM. The GI50 [16] was 1.76 µM, the TGI [16] was 13.9 µM and the GI50 [17] was 0.792 µM. For the same compound, the TGI [17] was 5.08 µM, the GI50 [18] was 2.11 µM and the TGI [18] was 46.7 µM. The GI50 [19] was 2.91 µM, the TGI [19] was 26.9 µM and the GI50 [20] was 0.875 µM. It also gave a TGI [20] of 14.6 µM, a GI50 [21] of 2.29 µM and a TGI [21] of over 100 µM. The GI50 [22] was 2.91 µM, the TGI [22] was 13.1 µM and the GI50 [23] was 0.64 µM. The TGI [23] was 3.94 µM, the GI50 [24] was 2.98 µM and the TGI [24] was 20.7 µM. The GI50 [25] was 3.79 µM, the TGI [25] was 22.4 µM and the GI50 [26] was 2.25 µM. The TGI [26] was 22.9 µM, the GI50 [27] was 0.28 µM and the TGI [27] was 0.829 µM. For the same compound, the GI50 [28] was 1.38 µM, the TGI [28] was 3.88 µM and the GI50 [29] was 2.06 µM. For the same compound, the TGI [29] was 10.5 µM, the GI50 [30] was 1.32 µM and the TGI [30] was 16.6 µM. The GI50 [31] was 5.18 µM, the TGI [31] was 38.9 µM and the GI50 [32] was 1.3 µM. It also gave a TGI [32] of 12.3 µM, a GI50 [33] of 2.08 µM and a TGI [33] of 10.4 µM. For the same compound, the GI50 [34] was 3.02 µM, the TGI [34] was 15.8 µM and the GI50 [35] was 1.08 µM. It also gave a TGI [35] of 11.1 µM, a GI50 [36] of 0.65 µM and a TGI [36] of 12.6 µM. The GI50 [37] was 3.15 µM, the TGI [37] was 16.7 µM and the GI50 [38] was 2.67 µM. The TGI [38] was 17.6 µM, the GI50 [39] was 0.458 µM and the TGI [39] was 10.8 µM. It also gave a GI50 [40] of 1.54 µM, a TGI [40] of 4.84 µM and a GI50 [41] of 1.91 µM. For the same compound, the TGI [41] was 19.9 µM, the GI50 [42] was 1.88 µM and the TGI [42] was 8.7 µM. The GI50 [43] was 0.933 µM, the TGI [43] was 8.28 µM and the GI50 [44] was 0.707 µM. For the same compound, the TGI [44] was over 100 µM, the GI50 [45] was 2.04 µM and the TGI [45] was 8.17 µM. It also gave a GI50 [46] of 1.38 µM, a TGI [46] of over 100 µM and a GI50 [47] of 0.611 µM. For the same compound, the TGI [47] was 10.8 µM, the GI50 [48] was 2.43 µM and the TGI [48] was 14.3 µM. It also gave a GI50 [49] of 2.56 µM, a TGI [49] of 14.8 µM and a GI50 [50] of 1.19 µM. The TGI [50] was 14 µM, the GI50 [51] was 0.591 µM and the TGI [51] was 13.1 µM. The GI50 [52] was 2.29 µM, the TGI [52] was 43.4 µM and the GI50 [53] was 1.64 µM. The TGI [53] was 14.6 µM, the GI50 [54] was 2.8 µM and the TGI [54] was 13.6 µM. For the same compound, the GI50 [55] was 2.98 µM, the TGI [55] was 17.6 µM and the GI50 [56] was 0.991 µM. For the same compound, the TGI [56] was 20.6 µM, the GI50 [57] was 2.73 µM and the TGI [57] was 20.1 µM.
